Laboratory results: ChEMBL document CHEMBL1128380, “Antimalarial activity of novel ring-contracted artemisinin derivatives” (1995)

Assays:
Format in all cases: functional
Mus musculus [1] = experiment: Antimalarial activity was determined by blood schizonticidal activity in mice (Mus musculus) infected with Plasmodium berghei K173 at 5 (mg/kg x5) subcutaneous dosage; Cured/treated = 4/6 on day 7
Mus musculus [2] = experiment: Antimalarial activity was determined by Blood schizonticidal activity in mice (Mus musculus) infected with Plasmodium berghei K173 at 25 (mg/kgx5) subcutaneous dosage; Cured/treated = 4/4
Mus musculus [3] = experiment: Antimalarial activity was determined by blood schizonticidal activity in mice (Mus musculus) infected with Plasmodium berghei K173 at 10 (mg/kgx5) subcutaneous dosage; Cured/treated = 0/6 on day 7
Mus musculus [4] = experiment: Antimalarial activity was determined by blood schizonticidal activity in mice (Mus musculus) infected with Plasmodium berghei K173 at 25 (mg/kgx5) peroral dosage; Cured/treated = 0/6
Mus musculus [5] = experiment: Antimalarial activity was determined by Blood schizonticidal activity in mice (Mus musculus) infected with Plasmodium berghei K173 at 2.5 (mg/kgx5) subcutaneous dosage; Cured/treated = 0/6 on day 7
Mus musculus [6] = experiment: Antimalarial activity was determined by Blood schizonticidal activity in mice (Mus musculus) infected with Plasmodium berghei NS at 5 (mg/kg x5) subcutaneous dosage; Cured/treated = 10/10
Mus musculus [7] = experiment: Antimalarial activity was determined by Blood schizonticidal activity in mice (Mus musculus) infected with Plasmodium berghei K173 at 25 (mg/kgx5) peroral dosage; Cured/treated = 10/12 on day 7
Mus musculus [8] = experiment: Antimalarial activity was determined by Blood schizonticidal activity in mice (Mus musculus) infected with Plasmodium berghei K173 at 20 (mg/kg x5) peroral dosage; Cured/treated = 4/12 on day 7
Mus musculus [9] = experiment: Antimalarial activity was determined by Blood schizonticidal activity in mice (Mus musculus) infected with Plasmodium berghei NS at 7.5 (mg/kg x5) peroral dosage; Cured/treated = 8/8
Mus musculus [10] = experiment: Antimalarial activity was determined by Blood schizonticidal activity in mice (Mus musculus) infected with Plasmodium berghei NS at 2.5 (mg/kgx5) subcutaneous dosage; Cured/treated = 11/14
Mus musculus [11] = experiment: Antimalarial activity was determined by blood schizonticidal activity in mice (Mus musculus) infected with Plasmodium berghei NS at 5 (mg/kg x5) subcutaneous dosage; Cured/treated = 19/20 on day 7
Mus musculus [12] = experiment: Antimalarial activity was determined by Blood schizonticidal activity in mice (Mus musculus) infected with Plasmodium berghei K173 at 0.625 (mg/kg x5) subcutaneous dosage; Cured/treated = 14/19 on day 7
Mus musculus [13] = experiment: Antimalarial activity was determined by Blood schizonticidal activity in mice (Mus musculus) infected with Plasmodium berghei K173 at 1.25 (mg/kgx5) subcutaneous dosage; Cured/treated = 30/30 on day 7
Mus musculus [14] = experiment: Antimalarial activity was determined by blood schizonticidal activity in mice (Mus musculus) infected with Plasmodium berghei K173 at 10 (mg/kgx5) peroral dosage; Cured/treated = 0/6 on day 7
Mus musculus [15] = experiment: Antimalarial activity was determined by Blood schizonticidal activity in mice (Mus musculus) infected with Plasmodium berghei NS at 25 (mg/kgx5) peroral dosage; Cured/treated = 0/6
Mus musculus [16] = experiment: Antimalarial activity was determined by blood schizonticidal activity in mice (Mus musculus) infected with Plasmodium berghei K173 at 25 (mg/kgx5) peroral dosage; Cured/treated = 6/6 on day 7
Mus musculus [17] = experiment: Antimalarial activity was determined by Blood schizonticidal activity in mice (Mus musculus) infected with Plasmodium berghei NS at 2.5 (mg/kgx5) subcutaneous dosage; Cured/treated = 6/6
Mus musculus [18] = experiment: Antimalarial activity was determined by Blood schizonticidal activity in mice (Mus musculus) infected with Plasmodium berghei K173 at 0.625 (mg/kg x5) subcutaneous dosage; Cured/treated = 6/6 on day 7
Mus musculus [19] = experiment: Antimalarial activity was determined by blood schizonticidal activity in mice (Mus musculus) infected with Plasmodium berghei NS at 12.5 (mg/kg x5) peroral dosage; Cured/treated = 2/6
Mus musculus [20] = experiment: Antimalarial activity was determined by Blood schizonticidal activity in mice (Mus musculus) infected with Plasmodium berghei NS at 25 (mg/kgx5) peroral dosage; Cured/treated = 6/6
Mus musculus [21] = experiment: Antimalarial activity was determined by Blood schizonticidal activity in mice (Mus musculus) infected with Plasmodium berghei K173 at 12.5 (mg/kg x5) peroral dosage; Cured/treated = 3/6 on day 7
Mus musculus [22] = experiment: Antimalarial activity was determined by blood schizonticidal activity in mice (Mus musculus) infected with Plasmodium berghei K173 at 1.25 (mg/kgx5) subcutaneous dosage; Cured/treated = 23/35 on day 7
Mus musculus [23] = experiment: Antimalarial activity was determined by Blood schizonticidal activity in mice (Mus musculus) infected with Plasmodium berghei K173 at 2.5 (mg/kgx5) subcutaneous dosage; Cured/treated = 36/36
Mus musculus [24] = experiment: Antimalarial activity was determined by Blood schizonticidal activity in mice (Mus musculus) infected with Plasmodium berghei K173 at 20 (mg/kg x5) peroral dosage; Cured/treated = 34/34
Mus musculus [25] = experiment: Antimalarial activity was determined by blood schizonticidal activity in mice (Mus musculus) infected with Plasmodium berghei NS at 5 (mg/kg x5) subcutaneous dosage; Cured/treated = 16/18 on day 7
Mus musculus [26] = experiment: Antimalarial activity was determined by blood schizonticidal activity in mice (Mus musculus) infected with Plasmodium berghei NS at 25 (mg/kgx5) peroral dosage; Cured/treated = 7/12 on day 7

Question: How did the Cured/treated (Mus musculus [1]) turn out when `C[C@@H]1CC[C@@H]2[C@]34OO[C@@](C)(CCC13)O[C@H]4O[C@]2(C)C(=O)NCc1ccc(C(F)(F)F)cc1` (stereo partly specified) was run?
Answer: 4

Question: For `C[C@@H]1CCC2[C@]34OOC(C)(CCC13)O[C@H]4O[C@]2(C)C=O` (single isomer, unassigned), which Cured/treated (Mus musculus [2]) is on record?
Answer: 4

Question: What about the Cured/treated (Mus musculus [3]) of the same compound?
Answer: 0

Question: `C=CCOC[C@@]1(C)O[C@@H]2OC3(C)CCC4[C@H](C)CC[C@@H]1[C@]42OO3` (single isomer, unassigned) was tested. Which Cured/treated (Mus musculus [4]) did it give?
Answer: 0

Question: And the Cured/treated (Mus musculus [5])?
Answer: 0

Question: And the Cured/treated (Mus musculus [6])?
Answer: 10

Question: With `C[C@H]1[C@@H](OC[C@]2(C)OC3OC4(C)CCC5[C@@H](C)CCC2[C@]35OO4)O[C@@H]2OC3(C)CCC4[C@H](C)CC[C@@H]1[C@]42OO3` (single isomer, unassigned) as the compound, how does the Cured/treated (Mus musculus [7]) read?
Answer: 10

Question: And the Cured/treated (Mus musculus [8])?
Answer: 4

Question: And the Cured/treated (Mus musculus [9])?
Answer: 8

Question: What about the Cured/treated (Mus musculus [10]) of the same compound?
Answer: 11

Question: What about the Cured/treated (Mus musculus [11]) of the same compound?
Answer: 19

Question: And the Cured/treated (Mus musculus [12])?
Answer: 14

Question: And the Cured/treated (Mus musculus [13])?
Answer: 30

Question: What about the Cured/treated (Mus musculus [14]) of the same compound?
Answer: 0

Question: And the Cured/treated (Mus musculus [15])?
Answer: 0

Question: For `C[C@H]1[C@H](OC[C@]2(C)OC3OC4(C)CCC5[C@@H](C)CCC2[C@]35OO4)O[C@@H]2OC3(C)CCC4[C@H](C)CC[C@@H]1[C@]42OO3` (single isomer, unassigned), which Cured/treated (Mus musculus [16]) is on record?
Answer: 6

Question: What about the Cured/treated (Mus musculus [17]) of the same compound?
Answer: 6

Question: What about the Cured/treated (Mus musculus [18]) of the same compound?
Answer: 6

Question: What about the Cured/treated (Mus musculus [19]) of the same compound?
Answer: 2

Question: What about the Cured/treated (Mus musculus [20]) of the same compound?
Answer: 6

Question: And the Cured/treated (Mus musculus [21])?
Answer: 3

Question: `CCO[C@H]1O[C@@H]2O[C@@]3(C)CC[C@H]4[C@H](C)CC[C@@H]([C@H]1C)[C@@]24OO3` [ARTEMOTIL] was tested. Which Cured/treated (Mus musculus [22]) did it give?
Answer: 23

Question: What about the Cured/treated (Mus musculus [23]) of the same compound?
Answer: 36

Question: And the Cured/treated (Mus musculus [24])?
Answer: 34

Question: What about the Cured/treated (Mus musculus [25]) of the same compound?
Answer: 16

Question: What about the Cured/treated (Mus musculus [26]) of the same compound?
Answer: 7
